Measured values as given in ChEMBL document CHEMBL1201861, “Genomics of Drug Sensitity in Cancer screening data, Wellcome Trust Sanger Institute”.

How the values were obtained:
Assay in all cases: cells
[1] = test system: COR-L23; type: functional, cell-based; conditions: Homo sapiens;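 note: cell viability assay measuring how strongly compounds suppress growth of COR-L23 cells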
Description: SANGER: Inhibition of human COR-L23 cell growth in a cell viability assay.

[2] = test system: CaR-1; type: functional, cell-based; conditions: Homo sapiens;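 note: growth inhibition of human CaR-1 cancer cells, read out with a cell viability assay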
Description: SANGER: Inhibition of human CaR-1 cell growth in a cell viability assay.

[3] = test system: DK-MG; type: functional, cell-based; conditions: Homo sapiens;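 note: growth inhibition of DK-MG cells, read out with a cell viability assay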
Description: SANGER: Inhibition of human DK-MG cell growth in a cell viability assay.

[4] = test system: EC-GI-10; type: functional, cell-based, Homo sapiens; conditions: Homo sapiens, EC-GI-10
Description: SANGER: Inhibition of human EC-GI-10 cell growth in a cell viability assay.

[5] = test system: EW-24; type: functional, cell-based, Homo sapiens; conditions: Homo sapiens, EW-24;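 note: human EW-24 cancer cell line, growth inhibition read out via a cell viability assay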
Description: SANGER: Inhibition of human EW-24 cell growth in a cell viability assay.

[6] = test system: GP5d; type: functional, cell-based; conditions: Homo sapiens;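 note: growth inhibition of human GP5d cells, read out with a cell viability assay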
Description: SANGER: Inhibition of human GP5d cell growth in a cell viability assay.

[7] = test system: HCC38; type: functional, cell-based; conditions: Homo sapiens;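 note: cell viability assay on the human HCC38 cell line, with IC50 marking the concentration that inhibits cell growth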
Description: SANGER: Inhibition of human HCC38 cell growth in a cell viability assay.

[8] = test system: HCT-15; type: functional, cell-based; conditions: Homo sapiens;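 note: cell viability readout, IC50 reflecting suppression of HCT-15 cell growth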
Description: SANGER: Inhibition of human HCT-15 cell growth in a cell viability assay.

[9] = test system: HEC-1; type: functional, cell-based; conditions: Homo sapiens;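 note: growth inhibition of the cell line, read out with a cell viability assay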
Description: SANGER: Inhibition of human HEC-1 cell growth in a cell viability assay.

[10] = test system: HOS; type: functional, cell-based; conditions: Homo sapiens;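 note: growth inhibition of human HOS cells, read out with a cell viability assay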
Description: SANGER: Inhibition of human HOS cell growth in a cell viability assay.

[11] = test system: HT1197; type: functional, cell-based, HT-1197; conditions: Homo sapiens
Description: SANGER: Inhibition of human HT-1197 cell growth in a cell viability assay.

[12] = test system: HuO9; type: functional, cell-based; conditions: Homo sapiens;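 note: growth inhibition of HuO9 cells, read out with a cell viability assay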
Description: SANGER: Inhibition of human HuO9 cell growth in a cell viability assay.

[13] = test system: KYSE-140; type: functional, cell-based; conditions: Homo sapiens;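 note: cell viability assay measuring growth inhibition in human KYSE-140 cells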
Description: SANGER: Inhibition of human KYSE-140 cell growth in a cell viability assay.

[14] = test system: KYSE-450; type: functional, cell-based; conditions: Homo sapiens;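 note: cell growth inhibition measured by a viability assay in human KYSE-450 cells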
Description: SANGER: Inhibition of human KYSE-450 cell growth in a cell viability assay.

[15] = test system: KYSE-520 cell line; type: functional, cell-based; conditions: Homo sapiens;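 note: growth inhibition of human KYSE-520 cells, read out with a viability assay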
Description: SANGER: Inhibition of human KYSE-520 cell growth in a cell viability assay.

[16] = test system: KYSE-70 cell line; type: functional, cell-based; conditions: Homo sapiens;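 note: cell viability assay read-out, with IC50 expressing suppression of KYSE-70 cell growth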
Description: SANGER: Inhibition of human KYSE-70 cell growth in a cell viability assay.

[17] = test system: LU-99A; type: functional, cell-based; conditions: Homo sapiens;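 note: growth inhibition of LU-99A cells, read out with a cell viability assay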
Description: SANGER: Inhibition of human LU-99A cell growth in a cell viability assay.

[18] = test system: MOLT-13; type: functional, cell-based; conditions: Homo sapiens;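 note: IC50 for suppression of MOLT-13 cell growth, read out with a cell viability assay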
Description: SANGER: Inhibition of human MOLT-13 cell growth in a cell viability assay.

[19] = test system: NB17; type: functional, cell-based, Homo sapiens; conditions: Homo sapiens, NB17;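 note: growth inhibition of NB17 cells, read out with a cell viability assay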
Description: SANGER: Inhibition of human NB17 cell growth in a cell viability assay.

[20] = test system: NCI-H2087; type: functional, cell-based; conditions: Homo sapiens;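 note: growth inhibition determined with a cell viability readout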
Description: SANGER: Inhibition of human NCI-H2087 cell growth in a cell viability assay.

[21] = test system: NCI-H727; type: functional, cell-based; conditions: Homo sapiens;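 note: growth inhibition of human NCI-H727 cells, read out with a cell viability assay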
Description: SANGER: Inhibition of human NCI-H727 cell growth in a cell viability assay.

[22] = test system: P12-Ichikawa; type: functional, cell-based; conditions: Homo sapiens
[23] = test system: PC-14; type: functional, cell-based; conditions: Homo sapiens;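 note: cell viability assay measuring inhibition of PC-14 cell growth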
Description: SANGER: Inhibition of human PC-14 cell growth in a cell viability assay.

[24] = test system: PFSK-1; type: functional, cell-based; conditions: Homo sapiens;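 note: cell viability assay measuring how strongly compounds suppress growth of human PFSK-1 cells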
Description: SANGER: Inhibition of human PFSK-1 cell growth in a cell viability assay.

[25] = test system: RERF-LC-MS; type: functional, cell-based; conditions: Homo sapiens;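 note: growth inhibition of human RERF-LC-MS cells, read out by a cell viability assay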
Description: SANGER: Inhibition of human RERF-LC-MS cell growth in a cell viability assay.

[26] = test system: RVH-421; type: functional, cell-based; conditions: Homo sapiens
Description: SANGER: Inhibition of human RVH-421 cell growth in a cell viability assay.

[27] = test system: SCC-4; type: functional, cell-based; conditions: Homo sapiens;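 note: growth inhibition of human SCC-4 cells, read out as cell viability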
Description: SANGER: Inhibition of human SCC-4 cell growth in a cell viability assay.

[28] = test system: SCC-9; type: functional, cell-based; conditions: Homo sapiens;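 note: Read-out is a cell viability assay, with values giving inhibition of cell growth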
Description: SANGER: Inhibition of human SCC-9 cell growth in a cell viability assay.

[29] = test system: SK-MEL-28; type: functional, cell-based; conditions: Homo sapiens;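 note: growth inhibition of human SK-MEL-28 cells, read out with a cell viability assay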
Description: SANGER: Inhibition of human SK-MEL-28 cell growth in a cell viability assay.

[30] = test system: SK-MEL-30; type: functional, cell-based; conditions: Homo sapiens;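 note: growth inhibition of SK-MEL-30 cells, determined with a cell viability assay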
Description: SANGER: Inhibition of human SK-MEL-30 cell growth in a cell viability assay.

[31] = test system: SNU-423; type: functional, cell-based; conditions: Homo sapiens
Description: SANGER: Inhibition of human SNU-423 cell growth in a cell viability assay.

[32] = test system: SNU-449; type: functional, cell-based; conditions: Homo sapiens
Description: SANGER: Inhibition of human SNU-449 cell growth in a cell viability assay.

[33] = test system: SW13; type: functional, cell-based; conditions: Homo sapiens;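 note: IC50 is inhibition of SW13 cell growth, read out with a cell viability assay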
Description: SANGER: Inhibition of human SW13 cell growth in a cell viability assay.

[34] = test system: SW948; type: functional, cell-based; conditions: Homo sapiens;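 note: growth inhibition of SW948 cells, read out with a cell viability assay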
Description: SANGER: Inhibition of human SW948 cell growth in a cell viability assay.

[35] = test system: 8305C; type: functional, cell-based; conditions: Homo sapiens
Description: SANGER: Inhibition of human 8305C cell growth in a cell viability assay.

[36] = test system: A-375; type: functional, cell-based; conditions: Homo sapiens;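 note: growth inhibition of A375 cells, read out with a cell viability assay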
Description: SANGER: Inhibition of human A375 cell growth in a cell viability assay.

[37] = test system: A-431; type: functional, cell-based; conditions: Homo sapiens;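 note: growth inhibition of A-431 cells, determined with a cell viability read-out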
Description: SANGER: Inhibition of human A431 cell growth in a cell viability assay.

[38] = test system: AU565; type: functional, cell-based; conditions: Homo sapiens;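 note: cell viability assay measuring growth inhibition of human AU565 cells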
Description: SANGER: Inhibition of human AU565 cell growth in a cell viability assay.

[39] = test system: BT-20; type: functional, cell-based; conditions: Homo sapiens;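 note: cell viability assay measuring suppression of growth in human BT-20 cells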
Description: SANGER: Inhibition of human BT-20 cell growth in a cell viability assay.

[40] = test system: C-33-A; type: functional, cell-based; conditions: Homo sapiens;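 note: cell viability assay measuring growth inhibition of C-33-A cells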
Description: SANGER: Inhibition of human C-33-A cell growth in a cell viability assay.

[41] = test system: CAL-27; type: functional, cell-based; conditions: Homo sapiens;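 note: Viability-based readout, IC50 reflecting inhibition of CAL-27 cell growth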
Description: SANGER: Inhibition of human CAL-27 cell growth in a cell viability assay.

[42] = test system: CAL-39; type: functional, cell-based; conditions: Homo sapiens;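 note: cell viability assay measuring growth inhibition of CAL-39 cells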
Description: SANGER: Inhibition of human CAL-39 cell growth in a cell viability assay.

[43] = test system: CHL-1; type: functional, cell-based; conditions: Homo sapiens;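 note: cell growth inhibition, read out with a cell viability assay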
Description: SANGER: Inhibition of human CHL-1 cell growth in a cell viability assay.

## NC(=O)c1ccc(N(C(N)=O)c2c(F)cccc2F)nc1-c1ccc(F)cc1F [VX-702]
[1]
  IC50: > 2000 nM
[2]
  IC50: > 2000 nM
[3]
  IC50: > 2000 nM
[4]
  IC50: > 2000 nM
[5]
  IC50: > 2000 nM
[6]
  IC50: > 2000 nM
[7]
  IC50: > 2000 nM
[8]
  IC50: > 2000 nM
[9]
  IC50: > 2000 nM
[10]
  IC50: > 2000 nM
[11]
  IC50: > 2000 nM
[12]
  IC50: > 2000 nM
[13]
  IC50: > 2000 nM
[14]
  IC50: > 2000 nM
[15]
  IC50: > 2000 nM
[16]
  IC50: > 2000 nM
[17]
  IC50: > 2000 nM
[18]
  IC50: 160 nM
[19]
  IC50: > 2000 nM
[20]
  IC50: > 2000 nM
[21]
  IC50: > 2000 nM
[22]
  IC50: > 2000 nM
[23]
  IC50: > 2000 nM
[24]
  IC50: > 2000 nM
[25]
  IC50: > 2000 nM
[26]
  IC50: > 2000 nM
[27]
  IC50: > 2000 nM
[28]
  IC50: > 2000 nM
[29]
  IC50: > 2000 nM
[30]
  IC50: > 2000 nM
[31]
  IC50: > 2000 nM
[32]
  IC50: > 2000 nM
[33]
  IC50: > 2000 nM
[34]
  IC50: > 2000 nM
[35]
  IC50: > 2000 nM
[36]
  IC50: > 2000 nM
[37]
  IC50: > 2000 nM
[38]
  IC50: > 2000 nM
[39]
  IC50: > 2000 nM
[40]
  IC50: > 2000 nM
[41]
  IC50: > 2000 nM
[42]
  IC50: > 2000 nM
[43]
  IC50: > 2000 nM

## CC1(C)CCC(c2ccc(Cl)cc2)=C(CN2CCN(c3ccc(C(=O)NS(=O)(=O)c4ccc(N[C@H](CCN5CCOCC5)CSc5ccccc5)c(S(=O)(=O)C(F)(F)F)c4)cc3)CC2)C1 [NAVITOCLAX]
[1]
  IC50: 1800 nM
[2]
  IC50: > 2000 nM
[3]
  IC50: > 2000 nM
[6]
  IC50: > 2000 nM
[7]
  IC50: 802 nM
[9]
  IC50: > 2000 nM
[10]
  IC50: > 2000 nM
[11]
  IC50: > 2000 nM
[12]
  IC50: 267 nM
[13]
  IC50: > 2000 nM
[14]
  IC50: > 2000 nM
[15]
  IC50: > 2000 nM
[16]
  IC50: > 2000 nM
[17]
  IC50: > 2000 nM
[18]
  IC50: 466 nM
[19]
  IC50: 71.2 nM
[20]
  IC50: > 2000 nM
[21]
  IC50: > 2000 nM
[22]
  IC50: 77.8 nM
[23]
  IC50: > 2000 nM
[24]
  IC50: > 2000 nM
[25]
  IC50: > 2000 nM
[26]
  IC50: > 2000 nM
[27]
  IC50: 1600 nM
[28]
  IC50: > 2000 nM
[29]
  IC50: > 2000 nM
[30]
  IC50: > 2000 nM
[31]
  IC50: 1780 nM
[32]
  IC50: > 2000 nM
[33]
  IC50: > 2000 nM
[34]
  IC50: > 2000 nM
[35]
  IC50: > 2000 nM
[36]
  IC50: > 2000 nM
[37]
  IC50: > 2000 nM
[38]
  IC50: > 2000 nM
[39]
  IC50: > 2000 nM
[40]
  IC50: > 2000 nM
[41]
  IC50: > 2000 nM
[42]
  IC50: > 2000 nM
[43]
  IC50: > 2000 nM

## CN(C)CCOc1ccc(-c2nc(-c3ccncc3)c(-c3ccc4c(c3)CC/C4=N\O)[nH]2)cc1 [SB590885]
[1]
  IC50: > 5000 nM
[2]
  IC50: > 5000 nM
[3]
  IC50: > 5000 nM
[6]
  IC50: > 5000 nM
[7]
  IC50: > 5000 nM
[9]
  IC50: > 5000 nM
[10]
  IC50: > 5000 nM
[11]
  IC50: > 5000 nM
[12]
  IC50: > 5000 nM
[13]
  IC50: > 5000 nM
[14]
  IC50: > 5000 nM
[15]
  IC50: > 5000 nM
[16]
  IC50: > 5000 nM
[17]
  IC50: > 5000 nM
[18]
  IC50: > 5000 nM
[19]
  IC50: > 5000 nM
[20]
  IC50: > 5000 nM
[21]
  IC50: > 5000 nM
[22]
  IC50: 3440 nM
[23]
  IC50: > 5000 nM
[24]
  IC50: > 5000 nM
[25]
  IC50: > 5000 nM
[26]
  IC50: 621 nM
[27]
  IC50: > 5000 nM
[28]
  IC50: > 5000 nM
[30]
  IC50: 1550 nM
[31]
  IC50: > 5000 nM
[32]
  IC50: > 5000 nM
[34]
  IC50: > 5000 nM
[35]
  IC50: > 5000 nM
[36]
  IC50: 282 nM
[37]
  IC50: > 5000 nM
[38]
  IC50: > 5000 nM
[39]
  IC50: > 5000 nM
[40]
  IC50: > 5000 nM
[41]
  IC50: > 5000 nM
[42]
  IC50: > 5000 nM
[43]
  IC50: > 5000 nM

## Cc1ccc(-n2nc(C(C)(C)C)cc2NC(=O)Nc2ccc(OCCN3CCOCC3)c3ccccc23)cc1 [DORAMAPIMOD]
[1]
  IC50: > 10000 nM
[2]
  IC50: > 10000 nM
[3]
  IC50: > 10000 nM
[6]
  IC50: > 10000 nM
[7]
  IC50: > 10000 nM
[8]
  IC50: > 10000 nM
[9]
  IC50: > 10000 nM
[10]
  IC50: > 10000 nM
[11]
  IC50: > 10000 nM
[12]
  IC50: > 10000 nM
[13]
  IC50: > 10000 nM
[14]
  IC50: > 10000 nM
[15]
  IC50: > 10000 nM
[16]
  IC50: > 10000 nM
[17]
  IC50: > 10000 nM
[18]
  IC50: > 10000 nM
[19]
  IC50: > 10000 nM
[20]
  IC50: > 10000 nM
[21]
  IC50: > 10000 nM
[22]
  IC50: > 10000 nM
[23]
  IC50: > 10000 nM
[24]
  IC50: > 10000 nM
[25]
  IC50: > 10000 nM
[26]
  IC50: > 10000 nM
[27]
  IC50: > 10000 nM
[28]
  IC50: > 10000 nM
[29]
  IC50: > 10000 nM
[30]
  IC50: > 10000 nM
[31]
  IC50: > 10000 nM
[32]
  IC50: > 10000 nM
[33]
  IC50: > 10000 nM
[34]
  IC50: > 10000 nM
[35]
  IC50: > 10000 nM
[36]
  IC50: > 10000 nM
[37]
  IC50: > 10000 nM
[38]
  IC50: > 10000 nM
[39]
  IC50: > 10000 nM
[40]
  IC50: > 10000 nM
[41]
  IC50: > 10000 nM
[42]
  IC50: > 10000 nM
[43]
  IC50: > 10000 nM
